What was measured:
[1] = tested on: M238R cells; assay: Viability assay (crystal violet staining of attached cells), BRAFi-resistant cells; assay type: cell-based, human; settings: 3 days
Experimental: FIG. 1. Nintedanib sensitizes melanoma cells to BRAFi/MEKi therapy and prevents BRAFi/MEKi-driven ECM remodeling. (A) BRAFi-resistant M238R cells were treated with vehicle (Ctrl), Nintedanib (2 μM), Vemurafenib and Trametinib (BRAFi/MEKi, 5 μM) or Vemurafenib/Trametinib (5 μM) plus Nintedanib (2 μM) for 3 days. Cell viability was assessed by crystal violet staining of attached cells. (B) BRAFi-sensitive parental M238P cells were treated with vehicle (Ctrl), Nintedanib (2 μM) Vemurafenib and Trametinib (BRAFi/MEKi, 1 μM) or Vemurafenib/Trametinib (1 μM) plus Nintedanib (2 μM) for 3 days. Cell viability was assessed by crystal violet staining of attached cells. Paired Student t-test has been used for statistical analysis. ****P≤0.0001. Data is represented as mean ±SE from a triplicate representative of at least 3 independent experiments.
The isogenic pair of Vemurafenib-sensitive and -resistant human BRAF-mutated melanoma cells M238 was provided by R. Lo (Nazarian et al., 2010). YUMM1.7 mouse melanoma cells were a kind gift from M. Bosenberg (Meeth et al., 2016). […]
After the indicated treatments, cells were stained with 0.04% crystal violet, 20% ethanol in PBS for 30 min. […] The crystal violet dye is solubilized by 10% acetic acid in PBS and measured by absorbance at 595 nm.

[2] = tested on: M238P cells; assay: Viability assay (crystal violet staining of attached cells), BRAFi-sensitive parental cells; assay type: cell-based, human; settings: 3 days
Experimental: Melanoma cells were cultured in Dulbecco's modified Eagle medium (DMEM) supplemented with 7% FBS (Hyclone) and 1% penicillin/streptomycin. Resistant cells were continuously exposed to 1 μM of Vemurafenib. […] BRAFi (PLX4032, Vemurafenib), MEKi (GSK1120212, Trametinib) and Nintedanib (BIBF1120) were from Selleckem.

[3] = tested on: M238R cells; assay: Real-time quantitative PCR gene expression in BRAFi-resistant cells; assay type: cell-based, human; settings: data not shown
Experimental: (§1) Total RNA was extracted from tumors and cell samples with the miRNeasy Mini Kit (Qiagen) according to the manufacturer's instructions.
(§2) 1 μg of extracted RNA from cells was reverse transcribed into cDNA using the Multiscribe reverse transcriptase kit provided by Applied Biosystems. Primers were designed using PrimerBank or adopted from published studies. Gene expression levels were measured using Platinum SYBR Green qPCR Supermix (Fisher Scientific) and Step One thermocycler (Applied Biosystem). Results from qPCR were normalized using the reference gene RPL32 and relative gene expression was quantified with the ΔΔCt method. Heatmaps describing gene expression fold changes were prepared using MeV software. cDNAs from tumors were prepared from 100 ng of RNA using Fluidigm Reverse Transcription Master Mix (Fluidigm PN 100-647297). Following a pre-amplification step (Fluidigm® PreAmp Master Mix and DELTAgene™ Assay kits) and exonuclease I treatment, samples diluted in Eva-Green® Supermix with Low ROX were loaded with primer reaction mixes in 96.96 Dynamic Array™ IFCs. Gene expression was then assessed on a Fluidigm BioMark HD instrument. Data were analyzed with real-time PCR analysis software (Fluidigm Corporation), and presented as relative gene expression according to the ΔΔCt method. Heat maps depicting fold changes of gene expression were prepared using MeV software.

[4] = tested on: M238P melanoma cells; assay: Real-time quantitative PCR gene expression in BRAFi-sensitive cells; assay type: cell-based, human; settings: data not shown
Experimental: as §1, §2

[5] = tested on: YUMM1.7 Braf-mutant melanoma; assay: Syngenic model of murine YUMM1.7 Braf-mutant melanoma: tumor growth, relapse, survival; assay type: in vivo, mouse
Source text: FIG. 2. Nintedanib enhances MAPK-targeted therapy efficacy, delays tumor relapse, improves mice survival and normalizes the pro-fibrotic stromal reaction. Kaplan-Meier survival curves of mice treated with vehicle, Nintedanib, MAPK-targeted therapy (BRAFi+MEKi) or MAPK-targeted therapy plus Nintedanib. Log rank (Mantel-Cox) statistical test was used for MAPK-targeted therapy vs MAPK targeted therapy/Nintedanib. ****p<0.0001.
FIG. 4. Nintedanib, but not Pirfenidone, enhances MAPK-targeted therapy efficacy and delays tumor relapse. Mouse YUMM1.7 cells were injected s.c. into syngeneic C57BL/6 mice. When tumor volume reached 100 mm3, mice were administered vehicle, BRAFi+MEKi combination, Nintedanib, Pirfenidone or the triple combinations of BRAFi+MEKi and Nintedanib or BRAFi+MEKi and Pirfenidone. Representative median graphics show tumor growth following treatment (n=3 mice per group). Treatment: Oral gavage 3 times per week. Vemurafenib (BRAFi): 30 mg/kg; Trametinib (MEKi): 0.3 mg/kg; Nintedanib: 50 mg/kg; Pirfenidone: 100 mg/kg. Oral gavage 3 times per week.
Mouse experiments were carried out according to the Institutional Animal Care and the local ethical committee. 4×105 YUMNI1.7 cells were injected in both flanks of C57BL/6 mice. Tumors were measured with caliper and treatments were started when the tumors reached a volume of 0.1 cm3, after randomization of mice into control and test groups. Vemurafenib (30 mg/kg), Trametinib (0.3 mg/kg), and Nintedanib (50 mg/kg) were administered by oral gavage three times per week. Control mice were treated with vehicle only. Animals were sacrificed when the tumors reached a volume of 1 cm3. After animal sacrifice, tumors were dissected, weighed and snap-frozen in liquid nitrogen for RNA or protein extraction and immunofluorescence analysis (embedded in OCT from Tissue-Tek). Tumors for picrosirius red staining were fixed in formalin.

[6] = tested on: YUMM 1.7 tumors; assay: ECM remodeling in YUMM1.7 tumors (picrosirius red collagen staining, qPCR of ECM, myofibroblast and pro-fibrotic markers); assay type: in vivo, mouse; settings: co-administration of Nintedanib with MAPKi; data not shown
Experimental: as §2, with “Heatmaps describing gene expression fold changes were prepared using MeV software. cDNAs from tumors were prepared from 100 ng of RNA using Fluidigm Reverse Transcription Master Mix (Fluidigm PN 100-647297).” left out, “[…])” for “DELTAgene™ Assay kits)”, “ArrayTM” for “Array™”, “software. Collagen in paraffin-embedded tumors was stained with picrosirius red using standard protocols as described (Girard et al., 2020). Tumor sections were analyzed by polarized light microscopy. Images were acquired under polarized illumination using a light transmission microscope (Zeiss PALM, at 10× magnification). […]” for “software.”

COC(=O)c1ccc2c(c1)NC(=O)/C2=C(\Nc1ccc(N(C)C(=O)CN2CCN(C)CC2)cc1)c1ccccc1 [Nintedanib]
cell survival (viability) ([1]; BRAFi-resistant M238R cells, Nintedanib alone (2 μM)): no effect
sensitivity to BRAF and MEK co-inhibition (cell viability) ([1]; M238R cells, Nintedanib 2 μM plus Vemurafenib/Trametinib 5 μM): restored sensitivity
cell survival (viability) ([2]; BRAFi-sensitive M238P cells, Nintedanib alone (2 μM)): no effect
effect on the inhibitory effect of BRAFi plus MEKi on cell viability ([2]; M238P cells, Nintedanib 2 μM plus Vemurafenib/Trametinib 1 μM): potentiated significantly the inhibitory effect
ECM and fibrotic-like signature ([3]; Nintedanib at two different doses): reverted
PDL1 expression [3]: reduced
BRAFi-induced ECM-related signature and myofibroblast markers such as ACTA2, MYL9 and LOXL2 [4]: strongly attenuated
differentiation marker MITF expression ([4]; under BRAFi): prevented the downregulation
gene expression of phenotypic markers such as PDL1 and NGFR ([4]; under BRAFi): reduced
effect on MAPK-targeted therapy efficacy and tumor relapse ([5]; BRAFi/MEKi-treated YUMM1.7 melanoma, n=3, Nintedanib 50 mg/kg or Pirfenidone 100 mg/kg added to Vemurafenib 30 mg/kg + Trametinib 0.3 mg/kg): enhances MAPK-targeted therapy efficacy and prevents tumor relapse
anti-melanoma effect ([5]; YUMM1.7 s.c. in C57BL/6 mice, Nintedanib 50 mg/kg alone, oral gavage three times per week): did not display any anti-melanoma effect
tumor growth ([5]; YUMM1.7 s.c. in C57BL/6 mice, oral gavage three times per week): slightly slowing down tumor growth but not triggering tumor volume decrease
MAPKi-induced ECM remodeling responses in tumors [6]: suppressed
